# ChEMBL document CHEMBL4425137, “Selective 5-HT2C receptor agonists: Design and synthesis of pyridazine-fused azepines” (Bioorg Med Chem Lett, 2016)
# Tests used:
# [1] = human, microsomes
# Description: (§1) Intrinsic clearance in human liver microsomes
# [2] = target: T1, 5-hydroxytryptamine receptor 2C (Homo sapiens, UniProt P28335)
# T1 sequence (P28335 whole entry): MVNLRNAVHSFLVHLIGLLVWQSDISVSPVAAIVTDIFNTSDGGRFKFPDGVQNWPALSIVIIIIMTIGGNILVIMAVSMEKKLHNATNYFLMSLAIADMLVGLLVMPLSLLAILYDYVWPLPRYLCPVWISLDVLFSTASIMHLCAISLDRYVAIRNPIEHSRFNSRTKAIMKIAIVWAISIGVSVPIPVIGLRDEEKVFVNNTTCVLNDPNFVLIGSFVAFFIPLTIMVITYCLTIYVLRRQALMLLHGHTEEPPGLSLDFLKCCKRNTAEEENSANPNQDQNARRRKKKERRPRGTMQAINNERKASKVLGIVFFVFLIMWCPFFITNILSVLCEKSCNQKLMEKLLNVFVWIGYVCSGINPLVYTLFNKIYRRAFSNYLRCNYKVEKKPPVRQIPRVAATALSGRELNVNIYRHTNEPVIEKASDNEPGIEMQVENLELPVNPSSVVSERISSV
# Description: Agonist activity at recombinant human 5-HT2C receptor transfected in CHOK1 cells assessed as calcium mobilization by FLIPR assay
# [3] = target: T1, 5-hydroxytryptamine receptor 2C; assay: biochemical
# Description: Displacement of [3H]-mesulergine from recombinant human 5-HT2C receptor transfected in Swiss mouse 3T3 cells after 150 mins by scintillation proximity assay
# 5-HT2B receptor = 5-HT2B receptor (Homo sapiens, UniProt P41595); assay: in vitro
# Description: (§2) Agonist activity at recombinant human 5-HT2B receptor transfected in CHOK1 cells assessed as calcium mobilization at 10 uM by FLIPR assay
# in vitro [4] = conditions: dog, MDCK, permeability
# Description: Permeability in RRCK cells
# physchem = conditions: octanol/water
# Description: Lipophilicity, log D of the compound
# MDR1 = assay: in vitro; conditions: dog, MDCK-MDR1, Ratio
# Description: Efflux ratio of permeability from basolateral to apical side over apical to basolateral side in MDCK cells expressing MDR1
# in vitro [5] = conditions: human, liver microsomes
# Description: as §1
# [6] = target: T2, 5-hydroxytryptamine receptor 2B (Homo sapiens, UniProt P41595); assay: Agonist activity at recombinant human 5-HT2B receptor transfected in CHOK1 cells assessed as calcium mobilization by FLIPR assay; format: cell-based
# [7] = dog, mdckii-le
# Description: Permeability in RRCK cells
# [8] = target: T2, 5-hydroxytryptamine receptor 2B; conditions: 10 µM
# Description: as §2
# T2 sequence (P41595 whole entry): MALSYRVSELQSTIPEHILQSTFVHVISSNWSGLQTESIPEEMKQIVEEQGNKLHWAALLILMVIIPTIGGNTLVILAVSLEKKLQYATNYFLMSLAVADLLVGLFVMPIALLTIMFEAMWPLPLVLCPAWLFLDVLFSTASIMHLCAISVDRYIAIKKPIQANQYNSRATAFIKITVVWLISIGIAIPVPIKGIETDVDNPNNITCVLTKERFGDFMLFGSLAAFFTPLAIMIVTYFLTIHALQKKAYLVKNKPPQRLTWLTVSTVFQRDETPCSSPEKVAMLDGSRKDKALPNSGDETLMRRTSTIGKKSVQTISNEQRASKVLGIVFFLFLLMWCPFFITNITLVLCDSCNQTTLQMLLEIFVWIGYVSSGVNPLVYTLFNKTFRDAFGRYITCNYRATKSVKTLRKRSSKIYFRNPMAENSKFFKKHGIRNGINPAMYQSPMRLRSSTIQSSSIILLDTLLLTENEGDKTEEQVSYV
# 5-HT2B receptor, sequence (P41595 whole entry): as above
CLH [1],EC50 [2],Ki [3],Emax at 10 µM (5-HT2B receptor),Papp (in vitro [4]),logD (physchem),efflux ratio (MDR1),microsomal CLint (in vitro [5]),EC50 [6],permeability [7],Emax [8],SMILES
< 8 mL/min/mg,,,,,,,,,,,c1ccc(Cc2ncc3c(n2)CCNCC3)cc1
,310 nM,120 nM,63%,13 ×10⁻⁶ cm/s,0.8,1.3,< 7 µL/min/mg,410 nM,,,Clc1ccc(Cc2cc3c(nn2)CCNCC3)cc1
,> 10000 nM,550 nM,40%,16 ×10⁻⁶ cm/s,0.1,1.9,9 µL/min/mg,,,,COc1ccccc1Cc1cc2c(nn1)CCNCC2
,750 nM,250 nM,57%,13 ×10⁻⁶ cm/s,0.9,1.7,< 7 µL/min/mg,450 nM,,,FC(F)(F)c1cccc(Cc2cc3c(nn2)CCNCC3)c1
,> 10000 nM,450 nM,64%,14 ×10⁻⁶ cm/s,0.2,1.2,< 7 µL/min/mg,,,,Fc1ccc(Cc2cc3c(nn2)CCNCC3)cc1
,110 nM,170 nM,,,,,,,14 ×10⁻⁶ cm/s,55%,CC(c1ccccc1)c1cc2c(nn1)CCNCC2 (stereo in doubt; 15h)
< 7 mL/min/mg,,2700 nM,3%,13 ×10⁻⁶ cm/s,0.1,1,,,,,c1ccc(Cn2cc3c(n2)CCNCC3)cc1
,130 nM,80 nM,29%,14 ×10⁻⁶ cm/s,0,1,< 7 µL/min/mg,,,,c1ccc(Cc2cc3c(nn2)CCNCC3)cc1
,190 nM,200 nM,36%,13 ×10⁻⁶ cm/s,0.4,1.8,< 8 µL/min/mg,,,,CC(c1ccccc1)c1cc2c(nn1)CCNCC2 (stereo in doubt; 15g)
< 8 mL/min/mg,70 nM,110 nM,24%,,-0.1,3,,,,,O=c1[nH]c2c(nc1Cc1ccccc1)CCNCC2
,220 nM,520 nM,,14 ×10⁻⁶ cm/s,,1.9,< 8 µL/min/mg,,,,Cc1c(Cc2ccccc2)nnc2c1CCNCC2
,310 nM,200 nM,41%,15 ×10⁻⁶ cm/s,0.7,1.1,< 7 µL/min/mg,800 nM,,,Clc1ccccc1Cc1cc2c(nn1)CCNCC2
< 7 mL/min/mg,30 nM,10 nM,48%,13 ×10⁻⁶ cm/s,0.3,1,,,,,O=c1cc2c(nn1Cc1ccccc1)CCNCC2

SMILES,CLH [1],EC50 [2],Ki [3],Emax at 10 µM (5-HT2B receptor),Papp (in vitro [4]),logD (physchem),efflux ratio (MDR1),microsomal CLint (in vitro [5]),EC50 [6],permeability [7],Emax [8]
c1ccc(Cc2nnc3n2CCNCC3)cc1,< 8 mL/min/mg,> 10000 nM,> 10000 nM,0%,2 ×10⁻⁶ cm/s,-0.3,1.3,,,,
O=c1c2c([nH]n1Cc1ccccc1)CCNCC2,,> 10000 nM,,0%,< 1 ×10⁻⁶ cm/s,-0.5,,,,,
O=c1[nH]n(Cc2ccccc2)c2c1CCNCC2,< 7 mL/min/mg,> 10000 nM,,0%,< 1 ×10⁻⁶ cm/s,-0.1,1.2,,,,
